Source: patent US10238688B2, “Combination therapies for bladder cancer” (GENEDIA BIOTECH CO. LTD., priority 2015, dated 2019)

What was measured:
[1] = system: Biu87; experiment: MTT cell survival / IC50, Biu87 cells; format: cell-based, human; conditions: for Cell survival (%) / Single drug 4X Cell Survival (%): Biu87; for Cell survival (%): Table S3, ng/ml: Pi 40, Pa 160, EH 250, Ci 1500, Mi 200, 1=Ci/Mi, 2=EH/Ci/Mi, 3=Pa/Ci/Mi, 4=Pi/Ci/Mi; for Single drug 4X Cell Survival (%): ng/ml: EH 1000, Ci 6000, Mi 800, Pi 160, Pa 640, Ge 20, EH/Ci/Mi regimen; for Cell survival 72 hours / ACS (%): Biu87 cells; for Cell survival 72 hours: Table 4 (A); for ACS (%): Table 4 (B)
Procedure: (§1) The clinical grade of the chemotherapeutics (NCI Dictionary of Cancer Terms) was provided by the First Affiliated Hospital of Harbin Medical University: Pirarubicin (Pi, Wanle, Shenzhen), Paclitaxel (Pa, Taiji, Sichuan), Adriamycin (Ad, Pfizer, Jiangsu), Epirubicin Hydrochloride (EH, Haizheng, Zhejiang), Hydroxycamptothecin (Hy, Lishizhen, Hubei), Cisplatin (Ci, Haosen, Jiangsu), Gemcitabine (Ge, Haosen, Jiangsu) and Mitomycin (Mi, Haizheng, Zhejiang). The drug induced cell death was determined by a thiazolyl […] (MTT, 490 nm reading) based cell proliferation assay in the cultured cells following treatment by various concentrations of drugs for 72 hours. The relative chemoresistance to each drug of all cell lines was calculated with the lowest IC50 as a reference. The overall chemoresistance of each cell line was described as “chemoresistance index”, the numerator of the total relative IC50 to all the drugs over the number of drugs to rank the overall resistance state of each cell line to the six chemotherapeutics collectively.
(§2) The relative IC50 (fold) of each drug of all nine cell lines was normalized to the lowest IC50 in the most sensitive cell line (FIG. 2G), to describe the single drug resistance of cell lines. The overall chemoresistance of each cell line, a “chemoresistance index” (the numerator of the total relative IC50 over the number of drugs) (FIG. 2G) were calculated to rank the overall resistance state of each cell line to this six chemotherapeutics.
Twenty six-drug combinations at the indicated doses were initially generated through a random number generator (using MATLAB MathWorks©, Natick, Mass., U.S.) (The upper half of Table 1). The cell survival (% over the not drug control) of treated cells was determined and then used for a calculation of the average cumulative cell survival (%, ACS: the sum of cell survival (%) per combination divided by the number of cell lines tested). ACS<30% was used to separate the effective from the not-effective combinations.

[2] = system: SV-HUC-1; format: cell-based; conditions: for Single drug 4X Cell Survival (%): SV-HUC-1, ng/ml: EH 1000, Ci 6000, Mi 800, Pi 160, Pa 640, Ge 20, EH/Ci/Mi regimen; for Cell survival 72 hours / ACS (%): SV-HUC-1 cells; for Cell survival 72 hours: Table 4 (A); for ACS (%): Table 4 (B)
Procedure: as §1, §2

[3] = system: DNA Damage response pathway; experiment: Cignal Finder dual-luciferase pathway reporter, DNA Damage response (5637, Biu87, UM-UC-3, H-bc, SV-HUC-1); format: cell-based, human; design: key to Relative activity, DNA Damage reporter: firefly/renilla ratio, background (negative control) subtracted; conditions: for Relative activity, DNA Damage reporter: luc/Renluc relative to negative control reporter, single drug at 4 folds vs EH/Ci/Mi combination
Procedure: The pathway analysis was performed with Qiagen's Cignal Finder Pathway Reporter Array systems according to the manufacturer's instructions. The pathway-focused dual-luciferase reporter construct was a mixture of an inducible transcription factor responsive firefly luciferase reporter and constitutively expressing renilla construct. Transcriptional response element (TRE) sequence response elements to each specific transcriptional factor triggered by the different signaling pathways are positioned before the TATA box of firefly luciferase reporter gene. The extent of activity of the reporter reflects the level of activity of the particular signaling pathway. CMV controlled renilla expression vector is co-transfected into the cell as an internal control. Non-inducible reporter construct that lacks the transcriptional factor binding sequence and could not be induced by any transcription factors is used as a negative control. Cells transfected with CMV directed firefly luciferase reporter gene serve as a positive control. Briefly, cells seeded in 6-well plates were transfected with Cignal finder pathway arrays according to the manufacturer's instructions (Qiagen). Then cells were seeded onto 96-well plates. […] After 6 h of incubation with the different drugs at 37° C., cells were lysed and a dual luciferase assay (for firefly and renilla luciferase) was performed using a PromegaGloMax 20/20 illuminometer. The firefly luciferase activities were normalized over the renilla luciferase activities after background activity determined by luciferase activities of negative controls was subtracted. A triple test of cell survival under these drug doses was also performed by MTT assay following 18 h incubation at 37° C. […]

[4] = system: Cell Cycle/pRb-E2F pathway; experiment: Cignal Finder dual-luciferase pathway reporter, Cell Cycle/pRb-E2F; format: cell-based, human; design: key to Relative activity, Cell Cycle/pRb-E2F reporter: firefly/renilla ratio, background (negative control) subtracted; conditions: for Relative activity, Cell Cycle/pRb-E2F reporter: luc/Renluc relative to negative control reporter, single drug at 4 folds vs EH/Ci/Mi combination
Procedure: The pathway analysis was performed with Qiagen's Cignal Finder Pathway Reporter Array systems according to the manufacturer's instructions. The pathway-focused dual-luciferase reporter construct was a mixture of an inducible transcription factor responsive firefly luciferase reporter and constitutively expressing renilla construct. Transcriptional response element (TRE) sequence response elements to each specific transcriptional factor triggered by the different signaling pathways are positioned before the TATA box of firefly luciferase reporter gene. The extent of activity of the reporter reflects the level of activity of the particular signaling pathway. CMV controlled renilla expression vector is co-transfected into the cell as an internal control. Non-inducible reporter construct that lacks the transcriptional factor binding sequence and could not be induced by any transcription factors is used as a negative control. Cells transfected with CMV directed firefly luciferase reporter gene serve as a positive control. Briefly, cells seeded in 6-well plates were transfected with Cignal finder pathway arrays according to the manufacturer's instructions (Qiagen). Then cells were seeded onto 96-well plates. Ci (6000 ng/mL), Mi (800 ng/mL), or EH (1000 ng/mL) and Ci/Mi/EH combination (Ci, 1500 ng/mL, Mi, 800 ng/mL and EH, 1000 ng/m L) were then added to the cells 24 h post-transfection. After 6 h of incubation with the different drugs at 37° C., cells were lysed and a dual luciferase assay (for firefly and renilla luciferase) was performed using a PromegaGloMax 20/20 illuminometer. The firefly luciferase activities were normalized over the renilla luciferase activities after background activity determined by luciferase activities of negative controls was subtracted. A triple test of cell survival under these drug doses was also performed by MTT assay following 18 h incubation at 37° C. […]

[5] = system: nine cancer-associated signaling pathways; experiment: Pearson correlation of collective drug-triggered pathway activities (single drug versus EH/Ci/Mi regimen)
Excerpt: To calculate the correlation coefficients between the two cell lines, the R language statistics function “cor{stats}” was used to generate the correlation matrix between multiple cell lines.
This example then determined the correlation coefficient between the overall activity of these nine pathways and the chemoresistance state of these five cell lines. […] The overall state of activity of these pathways in each cell line are summarized (FIG. 4E) and the correlation coefficient of each pair of cell lines is calculated (FIG. 4F).

Row | Compound | Cell survival (%) [1] [%] | Single drug 4X Cell Survival (%) [1] [%] | Cell survival 72 hours [1] [%] | ACS (%) [1] [%] | Single drug 4X Cell Survival (%) [2] [%] | Cell survival 72 hours [2] [%] | ACS (%) [2] [%] | relative drug trigged pathway activity over the no-drug level, DNA Damage ([3]; 5637 cells) [fold] | Relative activity, DNA Damage reporter ([3]; 5637 cells) | digitalized pathway activity, DNA Damage ([3]; Biu87 cells) | relative drug trigged pathway activity over the no-drug level, DNA Damage ([3]; Biu87 cells) [fold] | Relative activity, DNA Damage reporter ([3]; Biu87 cells) | relative drug trigged pathway activity over the no-drug level, DNA Damage ([3]; H-bc cells) [fold] | Relative activity, DNA Damage reporter ([3]; H-bc cells) | relative drug trigged pathway activity over the no-drug level, DNA Damage ([3]; SV-HUC-1 cells) [fold] | Relative activity, DNA Damage reporter ([3]; SV-HUC-1 cells) | Relative activity, DNA Damage reporter ([3]; UM-UC-3 cells) | relative drug trigged pathway activity over the no-drug level, DNA Damage ([3]; Um-Uc-3 cells) [fold] | relative drug trigged pathway activity over the no-drug level, Cell Cycle/pRb-E2F ([4]; 5637 cells) [fold] | Relative activity, Cell Cycle/pRb-E2F reporter ([4]; 5637 cells) | other results
1 | N.N.[Cl][Pt][Cl] [Ci, (SP-4-2)-diamminedichloroplatinum(II)] | 20.94 | 12.93 | 12.93 | 12.93 | 26.21 | 26.21 | 26.21 | 2.17 | 0.48 | 0 (null (0) if neither of the above holds) | 0.63 | 0.94 | 1.69 | 4.19 | 1.54 | 3.70 | 2.38 | 0.68 | 1.95 | 1.77 | digitalized pathway activity, DNA Damage ([3]; UM-UC-3 cells): 0 (null (0) if neither of the above holds); digitalized pathway activity, Cell Cycle/pRb-E2F ([4]; Biu87 cells): 0 (null (0) if neither of the above holds); relative drug trigged pathway activity over the no-drug level, Cell Cycle/pRb-E2F ([4]; Biu87 cells): 0.55 fold; Relative activity, Cell Cycle/pRb-E2F reporter ([4]; Biu87 cells): 0.31; digitalized pathway activity, Cell Cycle/pRb-E2F ([4]; H-bc cells): 0 (null (0) if neither of the above holds); relative drug trigged pathway activity over the no-drug level, Cell Cycle/pRb-E2F ([4]; H-bc cells): 0.51 fold; Relative activity, Cell Cycle/pRb-E2F reporter ([4]; H-bc cells): 5.86; relative drug trigged pathway activity over the no-drug level, Cell Cycle/pRb-E2F ([4]; SV-HUC-1 cells): 1.71 fold; Relative activity, Cell Cycle/pRb-E2F reporter ([4]; SV-HUC-1 cells): 8.40; Relative activity, Cell Cycle/pRb-E2F reporter ([4]; UM-UC-3 cells): 2.29; relative drug trigged pathway activity over the no-drug level, Cell Cycle/pRb-E2F ([4]; Um-Uc-3 cells): 0.39 fold; Correlation coefficients versus EH/Ci/Mi ([5]; 5637 cells): 0.9177; Correlation coefficients versus EH/Ci/Mi ([5]; Biu87 cells): 0.3273; Correlation coefficients versus EH/Ci/Mi ([5]; H-bc cells): 0.6934; Correlation coefficients versus EH/Ci/Mi ([5]; SV-HUC-1 cells): 1; Correlation coefficients versus EH/Ci/Mi ([5]; UmUc3 cells): −0.7559
2 | COc1cccc2c1C(=O)c1c(O)c3c(c(O)c1C2=O)C[C@@](O)(C(=O)CO)C[C@@H]3[C@@H]1C[C@H](N)[C@@H](O)[C@H](C)O1 [EH, (8R,10S)-10-((2S,4S,5R,6S)-4-amino-5-hydroxy-6-methyltetrahydro-2H-pyran-2-yl)-6,8,11-trihydroxy-8-(2-hydroxyacetyl)-1-methoxy-7,8,9,10-tetrahydrotetracene-5,12-dione] | 38.68 | 23.24 | 23.24 | 23.24 | 61.89 | 61.89 | 61.89 | 3.42 | 0.75 | 0 (null (0) if neither of the above holds) | 1.04 | 1.58 | 6.13 | 3.99 | 2.5 | 6.00 | 5.96 | 1.71 | 5.15 | 4.67 | relative drug trigged pathway activity over the no-drug level, Cell Cycle/pRb-E2F ([4]; Biu87 cells): 3.95 fold; Relative activity, Cell Cycle/pRb-E2F reporter ([4]; Biu87 cells): 2.24; digitalized pathway activity, Cell Cycle/pRb-E2F ([4]; H-bc cells): 0 (null (0) if neither of the above holds); relative drug trigged pathway activity over the no-drug level, Cell Cycle/pRb-E2F ([4]; H-bc cells): 1.47 fold; Relative activity, Cell Cycle/pRb-E2F reporter ([4]; H-bc cells): 4.44; relative drug trigged pathway activity over the no-drug level, Cell Cycle/pRb-E2F ([4]; SV-HUC-1 cells): 2.45 fold; Relative activity, Cell Cycle/pRb-E2F reporter ([4]; SV-HUC-1 cells): 12.00; Relative activity, Cell Cycle/pRb-E2F reporter ([4]; UM-UC-3 cells): 17.25; relative drug trigged pathway activity over the no-drug level, Cell Cycle/pRb-E2F ([4]; Um-Uc-3 cells): 2.91 fold; Correlation coefficients versus EH/Ci/Mi ([5]; 5637 cells): 0.9177; Correlation coefficients versus EH/Ci/Mi ([5]; Biu87 cells): 0.982; Correlation coefficients versus EH/Ci/Mi ([5]; H-bc cells): 0.9707; Correlation coefficients versus EH/Ci/Mi ([5]; SV-HUC-1 cells): 0.9449; Correlation coefficients versus EH/Ci/Mi ([5]; UmUc3 cells): 0.3712
